Assay results published in US8273774B2, “Phenoxypyridinylamide compounds” (AstraZeneca AB, priority 2008, dated 2012).

Molecular target: recombinant Human Phosphodiesterase B2 (PDE4B2) (Homo sapiens, UniProt Q07343)
Test: Human Phosphodiesterase B2 Radiometric Assay
Type: biochemical
Conditions: 0.1 μg/mL recombinant PDE4B2; preincubated at 30 C for 30 min; [3H]cyclic AMP 8 nM, stopped after 20 min; yttrium silicate SPA beads; read-out: PDE4B2 pIC50 (converted)
Procedure: Human Phosphodiesterase B2 Radiometric Assay
The assay uses recombinant Human Phosphodiesterase B2 (PDE4B2) produced in house (PrAZL0163), stored at −20° C. This assay is based on the observation that 5′AMP, the product of the reaction catalysed by PDE4, binds preferentially to yttrium silicate SPA beads (Amersham Biosciences, UK) compared to the substrate, cAMP. Compounds at the appropriate concentration were preincubated at 30 C for 30 min with an assay buffer containing 50 mM HEPES (pH 7.5), 8.3 mM MgCl2, 1.7 mM EGTA, 0.01% (w/v) Brij®35 and 0.1 μg/mL recombinant PDE4B2. The reaction was started by the addition of [3H]cyclic AMP to give a final concentration of 8 nM, and was stopped 20 min after the addition of the substrate by the addition of yttrium silicate SPA beads containing 18 mM Zn SO4. Bound […] was measured using a Topcount NXT (Packard Bioscience, UK). pIC50 values (presented in Table 2) were determined using Xlfit3 curve fitting, using model 205.

recombinant Human Phosphodiesterase B2 (PDE4B2), sequence (Q07343 1-564 isoform Q07343-2): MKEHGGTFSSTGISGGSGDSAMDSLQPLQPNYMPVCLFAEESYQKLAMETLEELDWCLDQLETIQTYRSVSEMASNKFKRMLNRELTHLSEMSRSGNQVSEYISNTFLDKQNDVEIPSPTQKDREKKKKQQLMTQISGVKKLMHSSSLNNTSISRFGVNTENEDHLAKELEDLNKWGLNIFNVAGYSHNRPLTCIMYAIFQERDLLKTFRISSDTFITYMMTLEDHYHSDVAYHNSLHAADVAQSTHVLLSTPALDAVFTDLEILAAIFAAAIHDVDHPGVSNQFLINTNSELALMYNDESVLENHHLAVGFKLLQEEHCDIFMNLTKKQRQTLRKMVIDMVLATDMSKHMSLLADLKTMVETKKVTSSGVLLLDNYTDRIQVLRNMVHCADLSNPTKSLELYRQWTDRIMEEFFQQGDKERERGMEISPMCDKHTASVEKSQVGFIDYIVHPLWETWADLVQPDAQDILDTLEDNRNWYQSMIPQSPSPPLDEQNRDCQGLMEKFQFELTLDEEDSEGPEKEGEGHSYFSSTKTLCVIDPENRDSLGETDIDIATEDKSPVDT

First: Cc1cccc2nc(C(=O)N[C@H]3CC[C@@H](NC(=O)c4cc(F)cnc4Oc4cccc(-c5ccc(CN6CCCOCC6)cc5)c4)CC3)cn12 [Example 46, N-((1s,4s)-4-(2-(4′-((1,4-oxazepan-4-yl)methyl)biphenyl-3-yloxy)-5-fluoronicotinamido)cyclohexyl)-5-methylimidazo[1,2-a]pyridine-2-carboxamide]
Second: Cc1cccc2nc(C(=O)N[C@H]3CC[C@@H](NC(=O)c4cc(F)cnc4Oc4cccc(-c5ccc(CN6CCCC6)cc5)c4)CC3)cn12 [Example 50, N-((1s,4s)-4-(5-fluoro-2-(4′-(pyrrolidin-1-ylmethyl)biphenyl-3-yloxy)nicotinamido)cyclohexyl)-5-methylimidazo[1,2-a]pyridine-2-carboxamide]
The IC50 of the first is 2.5-fold lower: 0.126 nM for the first, 0.316 nM for the second.

First: Cc1cccc2nc(C(=O)N[C@H]3CC[C@@H](NC(=O)c4cc(F)cnc4Oc4cccc(-c5ccc(CN(C)C)cc5)c4)CC3)cn12 [Example 47, N-((1s,4s)-4-(2-(4′-((dimethylamino)methyl)biphenyl-3-yloxy)-5-fluoronicotinamido)cyclohexyl)-5-methylimidazo[1,2-a]pyridine-2-carboxamide]
Second: Cc1cccc2nc(C(=O)N[C@H]3CC[C@@H](NC(=O)c4cc(F)cnc4Oc4cccc(-c5ccc(CN(C)CCO)cc5)c4)CC3)cn12 [Example 51, N-((1s,4s)-4-(5-fluoro-2-(4′-(((2-hydroxyethyl)(methyl)amino)methyl)biphenyl-3-yloxy)nicotinamido)cyclohexyl)-5-methylimidazo[1,2-a]pyridine-2-carboxamide]
The IC50 of the first is 7.9-fold higher: 0.794 nM for the first, 0.1 nM for the second.

Going from `Cc1cccc2nc(C(=O)N[C@H]3CC[C@@H](NC(=O)c4cc(F)cnc4Oc4cccc(-c5ccc(CN6C[C@@H](C)N[C@@H](C)C6)cc5)c4)CC3)cn12` [Example 48, N-((1s,4s)-4-(2-(4′-(((3S,5R)-3,5-dimethylpiperazin-1-yl)methyl)biphenyl-3-yloxy)-5-fluoronicotinamido)cyclohexyl)-5-methylimidazo[1,2-a]pyridine-2-carboxamide] to `Cc1cc(C(=O)N[C@H]2CC[C@@H](NC(=O)c3cc(F)cnc3Oc3cccc(-c4ccc(CN5C[C@@H](C)N[C@@H](C)C5)cc4)c3)CC2)nn1C` [Example 62, N-((1s,4s)-4-(1,5-dimethyl-1H-pyrazole-3-carboxamido)cyclohexyl)-2-(4′-(((3S,5R)-3,5-dimethylpiperazin-1-yl)methyl)biphenyl-3-yloxy)-5-fluoronicotinamide], the IC50 falls from 0.0631 nM to 0.0251 nM (2.5-fold).

First: Cn1ccc(C(=O)N[C@H]2CC[C@@H](NC(=O)c3cc(F)cnc3Oc3cccc(-c4ccc(O)cc4CN4CCOCC4)c3)CC2)n1 [Example 49, 5-fluoro-2-(4′-hydroxy-2′-(morpholinomethyl)biphenyl-3-yloxy)-N-((1s,4s)-4-(1-methyl-1H-pyrazole-3-carboxamido)cyclohexyl)nicotinamide]
Second: O=C(N[C@H]1CC[C@@H](NC(=O)c2cc(F)cnc2Oc2cccc(-c3ccc(O)cc3CN3CCOCC3)c2)CC1)c1csc(CO)n1 [Example 58, N-((1s,4s)-4-(5-fluoro-2-(4′-hydroxy-2′-(morpholinomethyl)biphenyl-3-yloxy)nicotinamido)cyclohexyl)-2-(hydroxymethyl)thiazole-4-carboxamide]
The IC50 of the first is 2.5-fold lower: 0.0251 nM for the first, 0.0631 nM for the second.

First: CN(C)Cc1cc(O)ccc1-c1cccc(Oc2ncc(F)cc2C(=O)N[C@H]2CC[C@@H](NC(=O)c3cccc4[nH]cnc34)CC2)c1 [Example 52, N-((1s,4s)-4-(2-(2′-((dimethylamino)methyl)-4′-hydroxybiphenyl-3-yloxy)-5-fluoronicotinamido)cyclohexyl)-1H-benzo[d]imidazole-4-carboxamide]
Second: COCc1nc(C(=O)N[C@H]2CC[C@@H](NC(=O)c3cc(F)cnc3Oc3cccc(-c4ccc(O)cc4CN4CCOCC4)c3)CC2)cs1 [Example 63, N-((1s,4s)-4-(5-fluoro-2-(4′-hydroxy-2′-(morpholinomethyl)biphenyl-3-yloxy)nicotinamido)cyclohexyl)-2-(methoxymethyl)thiazole-4-carboxamide]
The IC50 of the first is 2.5-fold lower: 0.0501 nM for the first, 0.126 nM for the second.

Compared with `Cc1nc(C(=O)N[C@H]2CC[C@@H](NC(=O)c3cc(F)cnc3Oc3cccc(-c4ccc(CN5C[C@@H](C)N[C@@H](C)C5)cc4)c3)CC2)cs1` [Example 54, N-((1s,4s)-4-(2-(4′-(((3S,5R)-3,5-dimethylpiperazin-1-yl)methyl)biphenyl-3-yloxy)-5-fluoronicotinamido)cyclohexyl)-2-methylthiazole-4-carboxamide], `Cc1nc(C(=O)N[C@H]2CC[C@@H](NC(=O)c3cc(F)cnc3Oc3cccc(-c4cc(O)cc(CN5C[C@@H](C)N[C@@H](C)C5)c4)c3)CC2)cs1` [Example 65, N-((1s,4s)-4-(2-(3′-(((3R,5S)-3,5-dimethylpiperazin-1-yl)methyl)-5′-hydroxybiphenyl-3-yloxy)-5-fluoronicotinamido)cyclohexyl)-2-methylthiazole-4-carboxamide] is 1.6-fold lower in IC50: 0.0631 nM for the first, 0.0398 nM for the second.

First: Cc1nc(C(=O)N[C@H]2CC[C@@H](NC(=O)c3cc(F)cnc3Oc3cccc(-c4ccc(CN5CCCOCC5)cc4)c3)CC2)cs1 [Example 55, N-((1s,4s)-4-(2-(4′-((1,4-oxazepan-4-yl)methyl)biphenyl-3-yloxy)-5-fluoronicotinamido)cyclohexyl)-2-methylthiazole-4-carboxamide]
Second: Cc1nc(C(=O)N[C@H]2CC[C@@H](NC(=O)c3cc(F)cnc3Oc3cccc(-c4ccc(CN5CCCN(C)CC5)cc4)c3)CC2)cs1 [Example 60, N-((1s,4s)-4-(5-fluoro-2-(4′-((4-methyl-1,4-diazepan-1-yl)methyl)biphenyl-3-yloxy)nicotinamido)cyclohexyl)-2-methylthiazole-4-carboxamide]
The IC50 of the first is 2-fold higher: 0.1 nM for the first, 0.0501 nM for the second.

Going from `Cc1nc(C(=O)N[C@H]2CC[C@@H](NC(=O)c3cc(F)cnc3Oc3cccc(-c4ccc(CN5CCOCC5)cc4O)c3)CC2)cs1` [Example 56, N-((1s,4s)-4-(5-fluoro-2-(2′-hydroxy-4′-(morpholinomethyl)biphenyl-3-yloxy)nicotinamido)cyclohexyl)-2-methylthiazole-4-carboxamide] to `Cc1nc(C(=O)N[C@H]2CC[C@@H](NC(=O)c3cc(F)cnc3Oc3cccc(-c4ccc(CN5CCNCC5)cc4O)c3)CC2)cs1` [Example 57, N-((1s,4s)-4-(5-fluoro-2-(2′-hydroxy-4′-(piperazin-1-ylmethyl)biphenyl-3-yloxy)nicotinamido)cyclohexyl)-2-methylthiazole-4-carboxamide], the IC50 rises from 0.0251 nM to 0.0631 nM (2.5-fold).

Going from `Cc1cccc2nc(C(=O)N[C@H]3CC[C@@H](NC(=O)c4cc(F)cnc4Oc4cccc(-c5ccc(C(=O)O)cc5CN5CCOCC5)c4)CC3)cn12` [Example 59, 3′-(5-fluoro-3-((1s,4s)-4-(5-methylimidazo[1,2-a]pyridine-2-carboxamido)cyclohexylcarbamoyl)pyridin-2-yloxy)-2-(morpholinomethyl)biphenyl-4-carboxylic acid] to `Cc1cccc2nc(C(=O)N[C@H]3CC[C@@H](NC(=O)c4cc(F)cnc4Oc4cccc(-c5ccc(CN6CCCN(C)CC6)cc5)c4)CC3)cn12` [Example 64, N-((1s,4s)-4-(5-fluoro-2-(4′-((4-methyl-1,4-diazepan-1-yl)methyl)biphenyl-3-yloxy)nicotinamido)cyclohexyl)-5-methylimidazo[1,2-a]pyridine-2-carboxamide], the IC50 rises from 0.0794 nM to 0.126 nM (1.6-fold).
